Data on seven compounds can be found in DBAASP.

In brackets after ≈: the same amount, converted by molar mass. Where only a bound is given, the exact number is not on record here.

Holding throughout (assay): ≥ marks a high value that may be exact or a test limit, other limits are often not marked, values filed in µg/mL are converted to µM
Experiment [1] deals with Escherichia coli ATCC 25922.
Experiment [2] relates to Candida albicans NCTC 3179.
In experiment [3] the test system is Staphylococcus aureus ATCC 25923.
Experiment [4] has as its system Streptococcus sanguinis ATCC 10556.
For experiment [5], the system named is Streptococcus mutans UA159.
For experiment [6], the system named is Streptococcus sobrinus ATCC 6715.
In experiment [7] the test system is Staphylococcus aureus NCTC 8325.
Experiment [8] deals with Proteus mirabilis ATCC 25933.
Experiment [9] has as its system Enterobacter cloacae NHTCC 53001.
The test system of experiment [10] is Candida albicans ATCC 90028.
Experiment [11] relates to Klebsiella pneumoniae KK3 9904.
Experiment [12] has as its system Staphylococcus epidermidis RP62A.
The test system of experiment [13] is Pseudomonas aeruginosa ATCC 27853.
Experiment [14] concerns Enterococcus faecalis ATCC 29212.
Experiment [15] deals with Bacillus subtilis ATCC 6633.
Experiment [16] concerns Candida albicans ATCC 20032.
The test system of experiment [17] is Klebsiella pneumoniae ESBL 61962.
For experiment [18], the system named is Escherichia coli ESBL 64771.
Experiment [19] deals with Klebsiella pneumoniae ESBL 63575.
The subject of experiment [20] is Stenotrophomonas maltophilia ATCC 13637.
Experiment [21] deals with Enterococcus faecium mic80.
Experiment [22] relates to Staphylococcus aureus C623.
Experiment [23] deals with Enterococcus faecalis W61950.
In experiment [24] the test system is Enterococcus faecium t62764.
A further experiment deals with Pseudomonas aeruginosa 9.
In experiment [25] the test system is Pseudomonas aeruginosa 198.
The test system of experiment [26] is Pseudomonas aeruginosa H1030.
In experiment [27] the test system is Pseudomonas aeruginosa 213.
Experiment [28] concerns Pseudomonas aeruginosa LES400.
The test system of experiment [29] is Escherichia coli ESBL 63103.
The subject of experiment [30] is Pseudomonas aeruginosa PAO1 H103.
The subject of experiment [31] is Enterococcus faecalis f43559.
In experiment [32] the test system is Pseudomonas aeruginosa H1027.
Experiment [33] concerns Enterobacter cloacae 218R.

One may read the MIC as the lowest concentration that inhibits growth of the organism. As for `CC[C@H](C)[C@H](NC(=O)[C@H](CCCCN)NC(=O)[C@@H](NC(=O)[C@@H](NC(=O)[C@H](CC(N)=O)NC(=O)[C@H](CCC(=O)O)NC(=O)[C@H](CCC(=O)O)NC(=O)[C@H](CCC(N)=O)NC(=O)[C@@H](N)CCC(=O)O)C(C)C)C(C)C)C(=O)N[C@@H](CCC(N)=O)C(=O)N[C@@H](C)C(=O)N[C@@H](Cc1ccccc1)C(=O)N[C@@H](Cc1c[nH]c2ccccc12)C(=O)N[C@@H](CCCCN)C(=O)NCC(=O)N[C@@H](Cc1ccc(O)cc1)C(=O)N[C@@H](CCCCN)C(=O)N[C@@H](CCC(N)=O)C(=O)N[C@@H](CCCN=C(N)N)C(=O)N[C@@H](CCCCN)C(=O)N[C@@H](CCC(=O)O)C(=O)N[C@@H](Cc1ccc(O)cc1)C(=O)N[C@@H](CCSC)C(=O)O` [EQEENVVKIQAFWKGYKQRKEYM], the results for the MIC in [1], in [2] and in [3] were 2.15 µM (≈ 6.3 µg/mL), 28.3 µM (≈ 83 µg/mL) and 32.1 µM (≈ 94 µg/mL), respectively.
For the compound `NCCCC[C@H](NC(=O)[C@H](CCCCN)NC(=O)[C@H](Cc1ccccc1)NC(=O)[C@H](Cc1ccccc1)NC(=O)[C@H](CCCCN)NC(=O)[C@H](CCCCN)NC(=O)[C@H](Cc1ccccc1)NC(=O)[C@H](Cc1ccccc1)NC(=O)[C@H](CCCCN)NC(=O)[C@@H](N)Cc1ccccc1)C(=O)N[C@@H](Cc1c[nH]c2ccccc12)C(=O)O` [FKFFKKFFKKW], the minimum inhibitory concentration (MIC) in experiment [4] stood at 20.2 µM (≈ 32 µg/mL); in [5] it was 10.1 µM (≈ 16 µg/mL); in experiment [6], 10.1 µM (≈ 16 µg/mL).
Take `CC(C)C[C@H](NC(=O)[C@H](C)NC(=O)[C@H](CCCCN)NC(=O)[C@H](C)NC(=O)[C@H](C)NC(=O)CNC(=O)[C@H](CCCCN)NC(=O)[C@H](CC(C)C)NC(=O)[C@H](CC(C)C)NC(=O)[C@H](CC(=O)O)NC(=O)[C@H](CCCCN)NC(=O)[C@H](Cc1ccccc1)NC(=O)CN)C(=O)N[C@H](C(=O)N[C@@H](CCCCN)C(=O)N[C@H](C(=O)N[C@H](C(=O)N[C@@H](CC(C)C)C(=O)N[C@@H](Cc1ccccc1)C(=O)O)C(C)C)[C@@H](C)O)C(C)C` [GFKDLLKGAAKALVKTVLF]: the MIC in experiment [7] was no less than 50 µM; in [8], no less than 100 µM; in [9], 13 µM (≈ 26.3 µg/mL); in [10], no less than 100 µM; in experiment [11], 25 µM (≈ 50.5 µg/mL); in experiment [1], 6 µM (≈ 12.1 µg/mL). Further, the values for the MIC in experiment [12], in experiment [13] and in experiment [14] were 25 µM (≈ 50.5 µg/mL), 50 µM (≈ 101 µg/mL) and greater than 100 µM, respectively.
As to `CC[C@H](C)[C@H](NC(=O)CN)C(=O)NCC(=O)NCC(=O)N[C@@H](C)C(=O)N[C@@H](CC(C)C)C(=O)N[C@@H](CC(C)C)C(=O)N[C@@H](CO)C(=O)N[C@@H](C)C(=O)NCC(=O)N[C@@H](CCCCN)C(=O)N[C@@H](C)C(=O)N[C@@H](C)C(=O)N[C@@H](CC(C)C)C(=O)N[C@@H](CCCCN)C(=O)NCC(=O)N[C@@H](CC(C)C)C(=O)N[C@@H](C)C(=O)N[C@@H](CCCCN)C(=O)N[C@H](C(=O)N[C@@H](CC(C)C)C(=O)N[C@H](C(N)=O)C(C)C)C(C)C` [GIGGALLSAGKAALKGLAKVLV], the MIC amounted to 4.68 µM (≈ 9.4 µg/mL) in [15], 18.7 µM (≈ 37.5 µg/mL) in [1], 9.37 µM (≈ 18.8 µg/mL) in experiment [16] and 4.68 µM (≈ 9.4 µg/mL) in experiment [3].
`CC[C@H](C)[C@H](NC(=O)CN)C(=O)N[C@@H](CCCCN)C(=O)N[C@@H](CC(=O)O)C(=O)N[C@@H](Cc1c[nH]c2ccccc12)C(=O)N[C@H](C(=O)N[C@@H](CCCCN)C(=O)NCC(=O)N[C@@H](C)C(=O)N[C@@H](C)C(=O)N[C@@H](CCCCN)C(=O)N[C@@H](CCCCN)C(=O)N[C@@H](CC(C)C)C(=O)N[C@H](C(=O)N[C@@H](CCCCN)C(=O)N[C@H](C(=O)N[C@H](C(=O)N[C@@H](C)C(=O)N[C@@H](CO)C(=O)N[C@@H](Cc1cnc[nH]1)C(=O)N[C@H](C(=O)N[C@@H](C)C(=O)N[C@@H](CC(N)=O)C(=O)N[C@@H](CCC(N)=O)C(=O)O)[C@@H](C)CC)C(C)C)[C@@H](C)O)[C@@H](C)CC)[C@@H](C)CC` [GIKDWIKGAAKKLIKTVASHIANQ]: the minimal inhibitory concentration (MIC) in experiment [7] is no less than 50 µM; in experiment [8], no less than 100 µM; in experiment [9] it was 6 µM (≈ 15.5 µg/mL); in experiment [10] it was no less than 100 µM; in experiment [11], 13 µM (≈ 33.7 µg/mL); in experiment [1] it was 6 µM (≈ 15.5 µg/mL). Further, the MIC in experiment [12] was 13 µM (≈ 33.7 µg/mL); in [13], 13 µM (≈ 33.7 µg/mL); in experiment [14] it was greater than 100 µM.
For the compound `CC[C@H](C)[C@H](N)C(=O)N[C@@H](Cc1c[nH]c2ccccc12)C(=O)N[C@@H](Cc1c[nH]c2ccccc12)C(=O)N[C@@H](CCCCN)C(=O)N[C@@H](Cc1c[nH]c2ccccc12)C(=O)N[C@@H](CCCN=C(N)N)C(=O)N[C@@H](CCCN=C(N)N)C(=O)N[C@@H](Cc1c[nH]c2ccccc12)C(=O)N[C@H](C(=O)O)C(C)C` [IWWKWRRWV], the MIC in experiment [17] was no less than 48 µM; in [18] it was 2.97 µM (≈ 4.2 µg/mL); in experiment [19] it was 6 µM (≈ 8.5 µg/mL); in experiment [20] it was 0.777 µM (≈ 1.1 µg/mL); in experiment [21] it was 2.97 µM (≈ 4.2 µg/mL); in experiment [22], 1.48 µM (≈ 2.1 µg/mL). For the same compound, the minimal inhibitory concentration (MIC) in experiment [23] is 24 µM (≈ 34 µg/mL); in experiment [24], 1.48 µM (≈ 2.1 µg/mL); in the experiment with Pseudomonas aeruginosa 9, 24 µM (≈ 34 µg/mL); in [25] it was 6 µM (≈ 8.5 µg/mL); in experiment [26] it was 24 µM (≈ 34 µg/mL); in experiment [27], 24 µM (≈ 34 µg/mL). In addition, the MIC in experiment [28] amounted to 6 µM (≈ 8.5 µg/mL); in experiment [3], 1.48 µM (≈ 2.1 µg/mL); in experiment [29] it was 12 µM (≈ 17 µg/mL); in experiment [30], 2.97 µM (≈ 4.2 µg/mL); in experiment [31] it was 24 µM (≈ 34 µg/mL); in experiment [32], 2.97 µM (≈ 4.2 µg/mL). Besides, the minimal inhibitory concentration (MIC) worked out at 2.97 µM (≈ 4.2 µg/mL) in experiment [33] and 12 µM (≈ 17 µg/mL) in experiment [14].
Take `CC[C@H](C)[C@H](NC(=O)[C@H](CCCN=C(N)N)NC(=O)[C@H](C)NC(=O)[C@H](CC(C)C)NC(=O)[C@@H](N)CCCN=C(N)N)C(=O)N[C@H](C(=O)N[C@H](C(=O)N[C@H](C(=O)N[C@@H](CCCN=C(N)N)C(=O)N[C@H](C(=O)N[C@@H](C)C(=O)N[C@@H](CCCN=C(N)N)C(=O)O)C(C)C)[C@@H](C)CC)C(C)C)C(C)C` [RLARIVVIRVAR]: the MIC in [17] is no less than 95 µM; in experiment [18], 12 µM (≈ 17 µg/mL); in experiment [19], no less than 95 µM; in experiment [20] it was 1.48 µM (≈ 2.1 µg/mL); in experiment [21], 5.91 µM (≈ 8.4 µg/mL); in experiment [22], 12 µM (≈ 17 µg/mL). Besides, the MIC in [23] was 23.9 µM (≈ 34 µg/mL); in experiment [24] it was 1.48 µM (≈ 2.1 µg/mL); against Pseudomonas aeruginosa 9, no less than 95 µM; in [25], no less than 47.1 µM; in [26], no less than 47.1 µM; in experiment [27] it was no less than 95 µM. Besides, the MIC in [28] was no less than 47.1 µM; in [3], 12 µM (≈ 17 µg/mL); in experiment [29], 12 µM (≈ 17 µg/mL); in experiment [30], 23.9 µM (≈ 34 µg/mL); in [31], 23.9 µM (≈ 34 µg/mL); in experiment [32], 5.91 µM (≈ 8.4 µg/mL). Besides, the figures for the MIC in experiment [33] and in [14] were 12 µM (≈ 17 µg/mL) and 5.91 µM (≈ 8.4 µg/mL), respectively.
